# In patent publication US7414107B2, “Pharmacologically active peptide conjugates having a reduced tendency towards enzymatic hydrolysis” (priority 1998, dated 2008):
# Marks after values point to notes of the source that are not given here. Where a SMILES comes first, the peptide text is derived from it. Bridges are numbered along the chain shown (N, C = ends). Where no end group is shown, it is not given here. [ ]: non-standard residue; d: D form. Orn = NCCC[C@H](N)C(=O)O
# T1: leucine aminopeptidase (Sus scrofa, UniProt P28839)
# T1 construct: purchased Sigma, UK type III-CP (catalogue number not given); host or cells: porcine kidney
# T1 sequence (P28839 1-519): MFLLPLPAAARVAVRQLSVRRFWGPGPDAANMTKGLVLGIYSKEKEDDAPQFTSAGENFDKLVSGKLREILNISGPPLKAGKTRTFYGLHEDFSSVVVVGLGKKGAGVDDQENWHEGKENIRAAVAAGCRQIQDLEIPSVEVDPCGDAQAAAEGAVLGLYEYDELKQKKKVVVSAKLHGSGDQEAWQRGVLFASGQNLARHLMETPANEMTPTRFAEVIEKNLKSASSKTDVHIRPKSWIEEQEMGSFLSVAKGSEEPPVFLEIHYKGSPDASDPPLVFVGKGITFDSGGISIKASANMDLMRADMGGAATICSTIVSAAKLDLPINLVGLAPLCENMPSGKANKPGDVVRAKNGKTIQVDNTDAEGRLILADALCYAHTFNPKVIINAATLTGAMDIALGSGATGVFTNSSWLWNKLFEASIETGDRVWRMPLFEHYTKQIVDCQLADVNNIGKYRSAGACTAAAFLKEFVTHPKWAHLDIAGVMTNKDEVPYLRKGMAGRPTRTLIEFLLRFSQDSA
# T2: carboxypeptidase A (Bos taurus, UniProt P00730)
# T2 construct: purchased Sigma, UK type I (catalogue number not given); host or cells: bovine pancreas
# T2 sequence (P00730 111-419): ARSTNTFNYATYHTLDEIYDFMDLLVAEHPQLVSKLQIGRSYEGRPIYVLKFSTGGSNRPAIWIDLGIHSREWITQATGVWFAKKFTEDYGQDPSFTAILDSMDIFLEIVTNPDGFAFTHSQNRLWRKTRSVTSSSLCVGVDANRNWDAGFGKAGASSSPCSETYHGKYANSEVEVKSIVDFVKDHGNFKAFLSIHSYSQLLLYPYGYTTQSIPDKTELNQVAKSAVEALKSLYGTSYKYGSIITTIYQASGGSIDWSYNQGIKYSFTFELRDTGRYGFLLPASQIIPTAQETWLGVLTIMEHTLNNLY
# B1: Parathyroid Hormone: native, human parathyroid hormone (protein, UniProt P01270 32-115, looked up)
# Parathyroid hormone: SVSEIQLMHNLGKHLNSMERVEWLRKKLQDVHNFVALGAPLAPRDAGSQRPRKKEDNVLVESHEKSLGEADKADVNVLTKAKSQ
# modifications: Parathyroid hormone
# Key:
# [1] = target: T1, leucine aminopeptidase; assay: Hydrolysis kinetics in leucine aminopeptidase solution; assay type: in vitro ADME, porcine; details: 50 mM phosphate buffer pH 7.4, 37° C., leucine aminopeptidase 25 U/ml; for half-life: pig
# Experimental: (§1) Carboxypeptidase A (EC 3.4.17.1) type I from bovine pancreas, leucine aminopeptidase (EC 3.4.11.1) type III-CP from porcine kidney, α-chymotrypsin (EC […]) from bovine pancreas, and pepsin A (EC 3.4.23.1) from porcine stomach mucosa […] were obtained from Sigma, UK.
# (§2) Gradient HPLC analysis of samples from in vitro kinetic measurements performed as described below was performed using a Hewlett Packard HP 1100 HPLC system consisting of a HP 1100 Binary Pump, a HPI 100 Autosampler, a HPI 100 Column Thermostat and a HP 1100 Variable Wavelength Detector. A Merck LiChroCART column (125×4 mm I.D.) and a LiChroCART precolumn (4×4 mm I.D.) packed with Lichrospher RP-18 (5 .μum particles) was used. The column was kept at 25° C. or 75° C. and the column effluent was measured by UV detection at 215 run. Separation of the peptide conjugates or the native peptides from degradation products and constituents of the reaction solutions was accomplished using gradient elution of the column with mixtures of mobile phase A (0.1 vol % TFA in water) and mobile phase B (0.085 vol % TFA in acetonitrile) at a flow rate of 1 ml/min.
# (§3) The degradation of the peptide conjugate and the corresponding native peptide were studied at 37° C. in a 50 mM phosphate buffer solution at pH 7.4 containing leucine arninopeptidase (25 U/ml) or carboxypeptidase A (1 or 25 U/ml). Experiments were initiated by addition of an aliquot (100 μl) of a stock solution (1 mg/ml) of the peptide conjugate or the native peptide to 900 μl preheated enzyme solution giving a final concentration of ˜0.1 mg/ml (10^−5-10^−4M) of the peptide conjugate or the native peptide. The peptide/enzyme solution was kept at 37° C. using a SHT200D block heater from Stuart Scientific. At appropriate time intervals, samples of 100 μl were withdrawn from the peptide/enzyme solution, mixed thoroughly with 20 μl 25% TFA in acetonitrile in order to stop the enzymatic degradation process and analysed by HPLC as described above. Half-lives (t1/2) for the peptide conjugate and the corresponding native peptide in the enzyme solutions were calculated from plots of the natural logarithm to the concentration of the residual peptide (HPLC peak heights) against time using the formula t/2=1/kobs×ln(2), where kobs is the apparent first-order rate constant for the observed degradation.
# [2] = target: T2, carboxypeptidase A; assay: Hydrolysis kinetics in carboxypeptidase A solution; assay type: in vitro ADME, bovine; details: 50 mM phosphate buffer pH 7.4, 37° C., carboxypeptidase A 1 U/ml
# Experimental: as §1, §2, §3
# [3] = Hematological responses after p.o. EMP-1 / EMP-1-K6 in mice; assay type: in vivo; details: male mice, 956 nmol p.o., 4 days after administration
# Experimental: To examine the biological efficacy of peroral (p.o.) treatment with EMP-1 (SEQ ID NO: 117) and EMP-1-K6 (SEQ ID NO: 93), the hematological responses of an equimolar p.o. dose (956 nmol) of EMP-1 (2 mg) and EMP-1-K6 (SEQ ID NO: 93) (2.56 mg) were examined in male mice (n=8/group). To examine the time course of the hematological responses, a 10 μl venous blood sample was collected from the retroorbital plexus on days 0, 2, and 4. Body weight (BW) and the plasma concentration of hemoglobin (P-Hgb), the hematocrit value (Hct), the red blood cell count (RBC), and the mean cell hemoglobin concentration (MCHC) were determined before (Day 0), and 2 and 4 days after administration of EMP-1 (SEQ ID NO: 117) or EMP-1- K6 (SEQ ID NO: 93).
# [4] = tested on: vas deferens; details: read-out: EC50 value; half maximal inhibition of electrically-induced contraction, mouse vas deferens
# Experimental: (§4) In short: vasa deferentia were isolated from male mice weighing 20-30 g (Mellegaard breeding, DK) and suspended through two electrodes in 10 ml baths at resting tension of 1 g. […] The tissues were stimulated electrically (70 V, 1 ms duration; 0.1 Hz) and contractions were recorded isometrically on a chart recorder. After equilibration of the tissue for at least 20 min, drugs were added in the bath and the maximum effects were measured.
# Prior to addition of the plasma sample, a standard dose-response curve was generated in each preparation in order to express the inhibitory activity as concentration of each test substance. Thus, the calculated concentration is a reflection of inhibitory activity in the vas deferens bioassay preparation.
# Where initial=initial […] contraction force prior to addition of test substance; conc=concentration of test substance; EC50=concentration of test substance that […] produced half maximal inhibition of electrically-induced contraction; background=contraction force during maximal relaxation.
# [5] = Bioavailability in mice: functional activity in serum after p.o. or i.v. dosing (vas deferens bioassay); details: 30 min
# Experimental: Blood samples were centrifuged immediately (3000 g, 4° C.) and serum was isolated and used for activity determination.
# as §4
# [6] = tested on: osteoblast; assay: Osteoblast retraction assay; assay type: cell-based, mice; details: 10 nM, 1 h, mouse calvaria osteoblasts
# Experimental: Retraction assays were performed with osteoblast prepared from calvaria of 1-day old mice according to published protocols (Miller et al., 1976, Science 192:1340-1343). In brief, osteoblasts were seeded in serum-free minimal essential medium-α (αMEM) at a density of 3000 cells per cm^2 into 96-well tissue culture plates coated with 50 μg/ml of type I collagen in phosphate-buffered saline containing 0.1% bovine serum albumin (PBS). One day after plating, PTH compounds were added to a final concentration of 10 nM and incubation was carried out for 1 h. Cells were then fixed and stained with toluidine blue, and the number of retracted cells was counted by visual inspection.
molecule,measurement,setting,value
"CC(C)C[C@@H]1NC(=O)[C@@H]2CCCN2C(=O)CNC(=O)[C@H](Cc2ccccc2)NC(=O)[C@H](Cc2c[nH]cn2)NC(=O)[C@@H](NC(=O)[C@H](CO)NC(=O)[C@H](Cc2ccc(O)cc2)NC(=O)[C@@H](NC(=O)CNC(=O)CN)[C@@H](C)O)CSSC[C@@H](C(=O)N[C@@H](CCCCN)C(=O)N2CCC[C@H]2C(=O)N[C@@H](CCC(N)=O)C(=O)NCC(=O)NCC(=O)O)NC(=O)[C@H](C(C)C)NC(=O)[C@H](Cc2c[nH]c3ccccc23)NC(=O)[C@H]([C@@H](C)O)NC1=O [EMP-1-OH, H-GIy-Gly-Thr-Tyr-Ser-Cys-His-Phe-Gly-Pro-Leu-Thr-Trp -Val-Cys-Lys-Pro-Gln-Gly-GIy-OH, reference compound] (H-GGTYSCHFGPLTWVCKPQGG-OH; disulfide 6-15)",pseudo first-order rate constant for the degradation,[1],0.0015 min⁻¹
same,half-life,[1],462 min
same,half-life,[2],> 3000 min
same,Change in BW,[3],3.4 ± 0.2 g
same,Change in Hematocrit,[3],0.3 ± 0.8%
same,Change in MCHC,[3],2.9 ± 1.5 mM
same,Change in P-hgb,[3],+1.5 ± 0.5 mM
same,Change in RBC,[3],0.6 ± 0.2 10^12 cells/1
same,Relative change in BW,[3],(16 ± 1%)
same,Relative change in Hematocrit,[3],(0.8 ± 1.8%)
same,Relative change in MCHC,[3],(4 ± 2%)
same,Relative change in P-hgb,[3],(+8 ± 1%)
same,Relative change in RBC,[3],(9 ± 3%)
"H-YGGFLKKEEEK-OH [Leu-Enkephalin-(Lys2-Glu3-Lys)-OH, H-Tyr-Gly-Gly-Phe-Leu-Lys-Lys-Glu-Glu-Glu-Lys-OH]",EC50,[4],680 nM
"CC(C)C[C@H](NC(=O)[C@H](Cc1ccccc1)NC(=O)CNC(=O)CNC(=O)[C@@H](N)Cc1ccc(O)cc1)C(=O)O [Leu-Enkephalin-OH, H-Tyr-Gly-Gly-Phe-Leu-OH, reference compound]",pseudo first-order rate constant for the degradation,[1],0.68 min⁻¹
same,half-life,[1],1 min
same,pseudo first-order rate constant for the degradation,[2],0.98 min⁻¹
same,half-life,"[2]; cattle, carboxypeptidase A solution (1 U/ml) in phosphate buffer",0.7 min
same,Functional activity in serum,[5]; 50 mg/kg i.v.,no activity was detected
same,Functional activity in serum,[5]; 50 mg/kg p.o.,no activity was detected
same,EC50,[4],65 nM
"CC(C)C[C@@H]1NC(=O)[C@@H]2CCCN2C(=O)CNC(=O)[C@H](Cc2ccccc2)NC(=O)[C@H](Cc2c[nH]cn2)NC(=O)[C@@H](NC(=O)[C@H](CO)NC(=O)[C@H](Cc2ccc(O)cc2)NC(=O)[C@@H](NC(=O)CNC(=O)CN)[C@@H](C)O)CSSC[C@@H](C(=O)N[C@@H](CCCCN)C(=O)N2CCC[C@H]2C(=O)N[C@@H](CCC(N)=O)C(=O)NCC(=O)NCC(=O)N[C@@H](CCCCN)C(=O)N[C@@H](CCCCN)C(=O)N[C@@H](CCCCN)C(=O)N[C@@H](CCCCN)C(=O)N[C@@H](CCCCN)C(=O)N[C@@H](CCCCN)C(=O)O)NC(=O)[C@H](C(C)C)NC(=O)[C@H](Cc2c[nH]c3ccccc23)NC(=O)[C@H]([C@@H](C)O)NC1=O [EMP-1-(Lys)6-OH, H-Gly-Gly-Thr-Tyr-Ser-Cys-His-Phe-Gly-Pro-Leu-Thr-Trp -Val-Cys-Lys-Pro-Gln-Gly-Gly-LM-OH] (H-GGTYSCHFGPLTWVCKPQGGKKKKKK-OH; disulfide 6-15)",half-life,[1],> 6000 min
same,half-life,[2],> 1200 min
same,Change in BW,[3],3.4 ± 0.3 g
same,Change in Hematocrit,[3],4.5 ± 0.9 %
same,Change in MCHC,[3],0.2 ± 1.5 mM
same,Change in P-hgb,[3],+2.4 ± 0.3 mM
same,Change in RBC,[3],1.0 ± 0.1* 10^12 cells/1
same,Relative change in BW,[3],(15 ± 2%)
same,Relative change in Hematocrit,[3],(12.3 ± 2.3%*)
same,Relative change in MCHC,[3],(0 ± 2%)
same,Relative change in P-hgb,[3],(+15 ± 2%*)
same,Relative change in RBC,[3],(17 ± 2%*)
YGGFLKEKEKE [Leu-Enkephalin-(Lys-Glu)3-OH],EC50,[4],350 nM
"YGGFLKKKKKKKKKK [Leu-Enkephalin-(Lys)10-OH, H-Tyr-Gly-Gly-Phe-Leu-Lys10-OH]",half-life,[1],> 6000 min
same,half-life,[2],2310 min
same,pseudo first-order rate constant for the degradation,[2],0.0003 min⁻¹
same,EC50,[4],2500 nM
"CC(C)C[C@H](NC(=O)[C@H](Cc1ccccc1)NC(=O)CNC(=O)CNC(=O)[C@@H](N)Cc1ccc(O)cc1)C(=O)N[C@@H](CCCN)C(=O)N[C@@H](CCCN)C(=O)N[C@@H](CCCN)C(=O)N[C@@H](CCCN)C(=O)N[C@@H](CCCN)C(=O)N[C@@H](CCCN)C(=O)O [Leu-Enkephalin-(Orn)6-OH, H-Tyr-Gly-Gly-Phe-Leu-(Orn)6-OH] (H-YGGFL[Orn][Orn][Orn][Orn][Orn][Orn]-OH)",pseudo first-order rate constant for the degradation,[1],0.0064 min⁻¹
same,half-life,[1],108 min
same,half-life,[2],> 6000 min
same,EC50,[4],> 20000 nM
B1,Retraction assay % Retracted cells,[6],63.7%
same,Retraction assay % Retracted cells,[6]; listed as PTH,~64%
